Results taken from US20060046972A1, “Cytotoxic nucleoside analog compound 003 for treating cancer” (Parker Hughes Institute, priority 2004, published 2006).
Several values for one entry are separate records, joined by “and”; a condition that tells them apart may be missing. Identical values can stand only once.

Test system: CD-1 mice
Experiment: Acute toxicity of intraperitoneal bolus doses in CD-1 mice
Type: in vivo
Settings: for tubular dilation: after the 30 day observation period
Protocol: 1.2.8 Animals Female CD-1 mice (Body weight: ˜25 g; Age: 7 week old) were purchased, from Charles River Laboratories (Willmington, Mass., USA). MMTV Neu-mice [FVB/N-TgN(MMTV neu)202MUL; Jackson Laboratory, Bar Harbor, Me.] were bred to produce multiple litters. All mice were housed in microisolator cages (Lab Products, Inc., Maywood, N.Y., USA) containing autoclaved bedding in a controlled specific pathogen-free (SPF) environment (12-h light/12-h dark photoperiod, 22±1° C., 60±10% relative humidity), which is fully accredited by the USDA (United States Department of Agriculture). Adult male Lewis rats (Body weight: ˜160 g) were obtained from the specific pathogen-free (SPF) breeding facilities of Harlan Sprague Dawley (Indianapolis, Id., USA) at 14 weeks of age. All husbandry and experimental contact made with the mice and rats maintained SPF conditions. The rats were kept in microisolater cages (Allentown Caging Equipment Co., Inc., Allentown, N.J., USA) containing autoclaved food, water, and bedding. Animal studies were approved by Parker Hughes Institute Animal Care and Use Committee and all animal care procedures 1.5 conformed to the Guide for the Care and Use of Laboratory Animals (National Research Council, National Academy Press, Washington D.C. 1996, USA).
The toxicity profile of Compound 003 in CD-1 mice and Lewis rats was examined, using standard procedures as previously reported for other experimental drugs (Uckun, et al., 2003, Arzneimittelforschun. 53:357; Uckun, et al., 2002, Clin Cancer Res. 8: 1224; Uckun, et al., 2002, Antimicrob Agents Chemother. 46:3428). In brief, mice and rats were treated with intraperitoneal injections of vehicle or Compound 003 at multiple dose levels. Compound 003 was administered as a 0.2 mL (for mice) or 0.5 mL (for rats) bolus injection containing 10% DMSO as a vehicle. Animals were allowed free access to autoclaved standard pellet food and tap water throughout the experiments and monitored daily for morbidity and mortality. Animals were electively sacrificed on day 7 or day 30 to determine the toxicity of Compound 003 by examining their blood chemistry profiles, blood counts, and evaluating multiple organs for the presence of toxic lesions. Blood was collected by intracardiac puncture following anesthesia with ketamine:xylazine and immediately heparinized. The blood chemistry profiles were examined using a Synchron CX5CE Chemical Analyzer (Beckman Instruments, Inc., Fullerton, Calif., USA). Blood counts (red blood cells [RBC], white blood cells [WBC] and platelets [Plt]) were determined using a HESKA Vet ABC-Diff Hematology Analyzer (HESKA Corporation, Fort Collins, Colo., USA). Absolute neutrophil counts (ANC) and absolute lymphocyte counts (ALC) were calculated from WBC values after determining the percentages of neutrophils and lymphocytes by a manual differential count. At the time of necropsy, […] from mice (bone, bone marrow, brain, cecum, heart, kidney, large intestine, liver, lung, lymph node, ovary, pancreas, skeletal muscle, skin, small intestine, spleen, stomach, thymus, thyroid gland, urinary bladder, and uterus, as available) and 21 different tissues from rats (bone, bone marrow, brain, coagulating gland, epididymis, heart, large intestine, small intestine, kidney, liver, lung, pancreas, peripheral nerve/spinal nerve, skeletal muscle, skin, spinal cord, spleen, stomach, testes, thymus, urinary bladder) were collected within 15 minutes after sacrifice, gross pathological findings were documented, organs were preserved in 10% neutral phosphate buffered formalin, and processed for histopathological examination. For histopathologic studies, formalin fixed tissues were dehydrated and embedded in paraffin by routine methods. Glass slides with affixed 4-5 micron tissue sections were prepared and stained with Hemotoxylin and Eosin (H&E). […]

[1] = 40 mg/kg single i.p. bolus, Day 7
[2] = 40 mg/kg single i.p. bolus, Day 30
[3] = 80 mg/kg single i.p. bolus, Day 7
[4] = 80 mg/kg single i.p. bolus, Day 30

COC(=O)C(C)NP(=O)(OCC1OC(n2cc(C)c(=O)[nH]c2=O)CC1N=[N+]=[N-])Oc1ccc(OC)cc1 (stereo not shown) [Compound 003, 3′-azidothymidine 5′-[p-methoxyphenylmethoxyalaninyl phosphate]]
Albumin [1]: 1.5 ± 0.0 g/dL
Ammonia [1]: 366.8 ± 23.7 µmol/L
Amylase [1]: 1597.8 ± 100.0 U/L
BUN [1]: 27.6 ± 0.7 mg/dL
Calcium [1]: 8.8 ± 0.2 mg/dL
Creatinine [1]: 0.5 ± 0.1 mg/dL
Mean Weight Change (g ± SEM) [1]: -0.06 ± 0.21 g
Mean Weight Change [%] [1]: (−0.2 ± 0.9%)
Morbidity [1]: 0/20
Phosphate [1]: 7.0 ± 0.2 mg/dL
RBC [1]: 9.8 ± 0.3 ×10^12/L
Total Bilirubin [1]: 0.7 ± 0.2 mg/dL
Total Protein [1]: 4.5 ± 0.1 g/dL
Toxic Organ Lesions [1]: 0/20
Triglycerides [1]: 134.7 ± 21.6 mg/dL
WBC [1]: 7.4 ± 0.7 ×10^9/L
Weight Gain [1]: 9/20
Weight Loss [1]: 11/20
ALC [2]: 4.7 ×10^9/L and 4.7 ± 0.0 ×10^9/L
ANC [2]: 1.4 ± 0.0 ×10^9/L
AST [2]: 198.5 ± 51.8 IU/L
Albumin [2]: 1.2 ± 0.0 g/dL
Ammonia [2]: 139.2 ± 8.3 µmol/L
Amylase [2]: 2153.7 ± 411.4 U/L
BUN [2]: 20.5 ± 0.8 mg/dL
Calcium [2]: 7.2 ± 0.2 mg/dL
Creatinine [2]: 0.3 ± 0.0 mg/dL
Mean Weight Change (g ± SEM) [2]: 2.34 ± 0.35 g
Mean Weight Change [%] [2]: (9.6 ± 1.4%)
Morbidity [2]: 0/20
Phosphate [2]: 5.9 ± 0.3 mg/dL
RBC [2]: 9.1 ± 0.1 ×10^12/L
Total Bilirubin [2]: 0.5 ± 0.1 mg/dL
Total Protein [2]: 3.9 ± 0.1 g/dL
Toxic Organ Lesions [2]: 0/20
Triglycerides [2]: 74.9 ± 5.0 mg/dL
WBC [2]: 6.2 ± 0.7 ×10^9/L
Weight Gain [2]: 18/20
Weight Loss [2]: 2/20
tubular dilation (40 mg/kg): 1/20
ALC [3]: 6.7 ± 0.0 ×10^9/L
ANC [3]: 2.4 ± 0.0 ×10^9/L
AST [3]: 111.4 ± 7.8 IU/L
Albumin [3]: 1.5 ± 0.1 g/dL
Ammonia [3]: 293.1 ± 23.4 µmol/L
Amylase [3]: 1424.6 ± 37.1 U/L
BUN [3]: 27.7 ± 0.9 mg/dL
Calcium [3]: 9.1 ± 0.2 mg/dL
Creatinine [3]: 0.3 ± 0.0 mg/dL
Mean Weight Change (g ± SEM) [3]: 0.09 ± 0.20 g
Mean Weight Change [%] [3]: (0.4 ± 0.8%)
Morbidity [3]: 0/20
Phosphate [3]: 6.0 ± 0.2 mg/dL
RBC [3]: 9.3 ± 0.2 ×10^12/L
Total Bilirubin [3]: 0.8 ± 0.2 mg/dL
Total Protein [3]: 4.9 ± 0.2 g/dL
Toxic Organ Lesions [3]: 0/20
Triglycerides [3]: 197.6 ± 34.7 mg/dL
WBC [3]: 9.5 ± 0.9 ×10^9/L
Weight Gain [3]: 11/20
Weight Loss [3]: 9/20
ALC [4]: 3.4 ×10^9/L and 3.4 ± 0.0 ×10^9/L
ANC [4]: 1.6 ± 0.0 ×10^9/L
AST [4]: 154.2 ± 33.8 IU/L
Albumin [4]: 1.2 ± 0.0 g/dL
Ammonia [4]: 178.4 ± 17.9 µmol/L
Amylase [4]: 1397.1 ± 339.3 U/L
BUN [4]: 26.1 ± 1.3 mg/dL
Calcium [4]: 7.7 ± 0.2 mg/dL
Creatinine [4]: 0.3 ± 0.0 mg/dL
Mean Weight Change (g ± SEM) [4]: 3.24 ± 0.29 g
Mean Weight Change [%] [4]: (13.4 ± 1.2%)
Morbidity [4]: 0/20
Phosphate [4]: 5.8 ± 0.4 mg/dL
RBC [4]: 9.4 ± 0.2 ×10^12/L
Total Bilirubin [4]: 0.6 ± 0.0 mg/dL
Total Protein [4]: 4.1 ± 0.1 g/dL
Toxic Organ Lesions [4]: 0/20
Triglycerides [4]: 85.6 ± 9.5 mg/dL
WBC [4]: 5.3 ± 0.5 ×10^9/L
Weight Gain [4]: 20/20
Weight Loss [4]: 0/20
tubular dilation (80 mg/kg): 1/20
Kidney tubular degeneration, share of drug-treated mice (40 and 80 mg/kg, following the 7 day period): ~50%
leukopenia / lymphocyte depletion (day 30, 10-80 mg/kg): causes leukopenia in a dose-dependent fashion due to a selective depletion of lymphocytes
overall toxicity (histologic evaluation) (doses up to and including 80mg/kg): nontoxic
hematologic toxicity, renal toxicity, hepatotoxicity (highest dose level of 80 mg/kg/day): no evidence of hematologic toxicity renal toxicity, or hepatotoxicity
LD10 (single i.p. bolus, not reached at highest dose): > 80 mg/kg/day
